Like-named read-outs stand apart in the source and are kept apart here.

The term melting point denotes the temperature, or range, at which the solid turns liquid. As a reminder, the IC50 is the concentration that gives 50% inhibition.

In data set [1] the target is human BACE1 (Homo sapiens, UniProt P56817). As to the kind of experiment: Fluorescent kinetic assay, BACE-1 (Example 114). It is filed as biochemical. As to the method:
Evaluation of BACE-1 Binding Affinity of Test Compounds
Fluorescent Kinetic Assays
Dilution and mixing steps: total reaction volume: 100 μL
100 μM substrate dilution in 1×PBS was prepared, and
Fluorescence Readings: Readings at λex 320 nm and εem 420 nm are taken every 40 sec for 30 min at room temperature and the linear slope for substrate cleavage rate (vi) determined.

Where [2] appears, read: 10 nM human BACE1, 25 μM substrate WABC-6, 50 mM Na-Acetate pH 4.5, room temperature, read-out: BACE-1 (IC50 μM).

Sequence of human BACE1 (P56817 46-501): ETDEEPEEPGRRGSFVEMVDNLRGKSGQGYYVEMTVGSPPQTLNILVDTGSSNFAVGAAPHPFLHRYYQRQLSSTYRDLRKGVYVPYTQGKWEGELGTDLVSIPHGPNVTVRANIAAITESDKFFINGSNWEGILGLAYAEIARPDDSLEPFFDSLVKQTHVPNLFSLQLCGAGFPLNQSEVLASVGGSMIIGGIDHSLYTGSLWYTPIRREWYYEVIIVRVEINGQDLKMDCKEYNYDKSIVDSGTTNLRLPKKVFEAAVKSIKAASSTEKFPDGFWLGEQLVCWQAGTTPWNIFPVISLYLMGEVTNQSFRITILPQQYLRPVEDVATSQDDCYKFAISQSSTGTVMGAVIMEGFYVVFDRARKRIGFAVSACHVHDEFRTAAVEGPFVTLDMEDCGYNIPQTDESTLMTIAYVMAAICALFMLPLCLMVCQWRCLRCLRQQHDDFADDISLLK

Regarding `CN1C(=O)C(c2ccncc2)(c2cccc(-c3ccsc3)c2)N=C1N` (stereo not drawn) [Example 46], the melting point is 217 to 219 °C. Consider `CN1C(=O)C(c2cccc(-c3cccnc3F)c2)(c2ccncc2F)N=C1N` (stereo not drawn) [Example 58], for which the melting point is 237 to 238 °C. In addition, the IC50 in data set [1] fell in the range of 0.01 to 0.1 µM. With `CCCOc1cccc(C2(c3ccncc3)N=C(N)N(C)C2=O)c1` (stereo not drawn) [Example 52, 2-Amino-3-methyl-5-(3-propoxyphenyl)-5-pyridin-4-yl-3,5-dihydro-4H-imidazol-4-one], the melting point lay within 173 to 175 °C. For `CN1C(=O)C(c2ccncc2)(c2cccc(-c3cccc(F)c3)c2)N=C1N` (stereo not drawn) [Example 53], the half-inhibitory concentration (IC50) in data set [1] fell in the range of 0.01 to 0.1 µM.

Take `CN1C(=O)[C@](c2ccncc2)(c2ccc(F)c(-c3cccnc3F)c2)N=C1N` [Example 113A, (5R)-2-amino-5-[4-fluoro-3-(2-fluoropyridin-3-yl)phenyl]-3-methyl-5-pyridin-4-yl-3,5-dihydro-4H-imidazol-4-one]: the IC50 in data set [1] (setting [2]) is above 1 µM. In the case of `CN1C(=O)C(c2ccncc2)(c2cccc(-c3ccoc3)c2)N=C1N` (stereo not drawn) [Example 45], the melting point lay within 113 to 115 °C. Turning to `COc1ncc(C2(c3cccc(-c4cccnc4F)c3)N=C(N)N(C)C2=O)c(OC)n1` (stereo not drawn) [Example 98], the IC50 in data set [1] (setting [2]) was in the range of 0.11 to 1 µM. In turn, `Cc1cc(C2(c3cccc(-c4cncnc4)c3)N=C(N)N(C)C2=O)cc(C)n1` (stereo not drawn) [Example 75] had an IC50 in data set [1] of 0.11 to 1 µM. In turn, `CCc1cc(C2(c3cccc(OCC4CC4)c3)N=C(N)N(C)C2=O)cc(CC)n1` (stereo not drawn) [Example 72] registered a melting point of 68 to 70 °C. In data set [1], the IC50 was 0.11 to 1 µM.

For `CN1C(=O)[C@@](c2ccncc2)(c2ccc(F)c(-c3cccnc3F)c2)N=C1N` [Example 113B, (5S)-2-amino-5-[4-fluoro-3-(2-fluoropyridin-3-yl)phenyl]-3-methyl-5-pyridin-4-yl-3,5-dihydro-4H-imidazol-4-one], the IC50 in data set [1] (setting [2]) is above 1 µM. In data set [1], `CCc1cc(C2(c3cccc(-c4cncnc4)c3)N=C(N)N(C)C2=O)cc(CC)n1` (stereo not drawn) [Example 91] gave an IC50 of 0.01 to 0.1 µM. Turning to `CCc1cc(C2(c3cccc(-c4cnccn4)c3)N=C(N)N(C)C2=O)cc(C)n1` (stereo not drawn) [Example 86], the melting point fell in the range of 130 to 134 °C. Further, in data set [1] (setting [2]), the IC50 was 0.11 to 1 µM.

`CN1C(=O)C(c2ccncc2)(c2cccc(-c3cccnc3F)c2)N=C1N` (stereo not drawn) [Example 43] displayed an IC50 in data set [1] of 0.01 to 0.1 µM. `CN1C(=O)C(c2ccncc2)(c2cccc(-c3cccnc3)c2)N=C1N` (stereo not drawn) [Example 44] came in with an IC50 in data set [1] of 0.01 to 0.1 µM. Consider `CN1C(=O)C(c2ccncc2)(c2ccc(OC(F)F)cc2)N=C1N` (stereo not drawn) [Example 112, 2-amino-5-[4-(difluoromethoxy)phenyl]-3-methyl-5-pyridin-4-yl-3,5-dihydro-4H-imidazol-4-one], for which the melting point is 193 to 195 °C. For the same compound, the IC50 in data set [1] (setting [2]) was above 1 µM. `Cc1cc(C2(c3cccc(-c4cncnc4)c3)N=C(N)N(C)C2=O)cc[n+]1[O-]` (stereo not drawn) [Example 102] came in with a melting point of 181 to 186 °C. Consider `CN1C(=O)C(c2ccncc2)(c2cccc(O)c2)N=C1N` (stereo not drawn) [Example 51, 2-Amino-5-(3-hydroxyphenyl)-3-methyl-5-pyridin-4-yl-3,5-dihydro-4H-imidazol-4-one], for which the melting point lay within 245 to 247 °C. Further, the IC50 in data set [1] (setting [2]) was above 1 µM.

For `CN1C(=O)C(c2ccccc2)(c2cccnc2)N=C1N` (stereo not drawn) [Example 28], the melting point is 205 to 206 °C. The IC50 in data set [1] (setting [2]) is above 1 µM. As for `CCc1cc(C2(c3ccc(F)c(-c4cnccc4F)c3)N=C(N)N(C)C2=O)cc(CC)n1` (stereo not drawn), the melting point was in the range of 92 to 100 °C. In turn, `CN1C(=O)C(c2ccncc2)(c2cccc(-c3cccc(CO)c3)c2)N=C1N` (stereo not drawn) [Example 36] came in with a melting point of 177 to 179 °C. This compound also had an IC50 in data set [1] of 0.11 to 1 µM. In turn, `CN1C(=O)C(c2ccncc2)(c2cccc(-c3cc(F)cc(F)c3)c2)N=C1N` (stereo not drawn) [Example 31] gave an IC50 in data set [1] of 0.01 to 0.1 µM. Compound `CCc1cc(C2(c3cccc(-c4cc(F)ccc4F)c3)N=C(N)N(C)C2=O)cc(C)n1` (stereo not drawn) [Example 85] had a melting point of 114 to 117 °C. The IC50 in data set [1] (setting [2]) was 0.11 to 1 µM. On to `CN1C(=O)C(c2ccncc2)(c2cccc(-c3cc(C#N)ccc3F)c2)N=C1N` (stereo not drawn) [Example 41], for which the melting point lay in the range of 213 to 215 °C. In data set [1], this compound registered an IC50 of 0.01 to 0.1 µM. The corresponding values for `CN1C(=O)C(c2ccncc2)(c2cccc(-c3ccc(C#N)s3)c2)N=C1N` (stereo not drawn) [Example 50] are 220 to 222 °C and 0.11 to 1 µM. In turn, `CN1C(=O)C(c2ccncc2)(c2cccc(-c3cccc(C#N)c3)c2)N=C1N` (stereo not drawn) [Example 55] returned an IC50 in data set [1] of 0.01 to 0.1 µM. As for `CCc1cc([C@]2(c3cccc(-c4ccc(F)nc4)c3)N=C(N)N(C)C2=O)cc(CC)n1` [Example 108B, (5S)-2-Amino-5-(2,6-diethylpyridin-4-yl)-5-[3-(6-fluoropyridin-3-yl)phenyl]-3-methyl-3,5-dihydro-4H-imidazol-4-one], the IC50 in data set [1] (setting [2]) fell in the range of 0.01 to 0.1 µM. On the same count and under the same terms, for `Cc1cc(C2(c3cccc(-c4cnccn4)c3)N=C(N)N(C)C2=O)cc(C)n1` (stereo not drawn) [Example 101] the value was 0.11 to 1 µM.

Consider `CCc1cc(C2(c3cccc(-c4ccc(F)nc4)c3)N=C(N)N(C)C2=O)cc(CC)n1` (stereo not drawn) [Example 93], for which the IC50 in data set [1] (setting [2]) fell in the range of 0.11 to 1 µM. For the compound `CCc1cc([C@@]2(c3cccc(-c4ccc(F)nc4)c3)N=C(N)N(C)C2=O)cc(CC)n1` [Example 108A, (5R)-2-Amino-5-(2,6-diethylpyridin-4-yl)-5-[3-(6-fluoropyridin-3-yl)phenyl]-3-methyl-3,5-dihydro-4H-imidazol-4-one], the IC50 in data set [1] (setting [2]) was above 1 µM. In the case of `CCc1cc(C2(c3cccc(-c4cc(F)ccc4F)c3)N=C(N)N(C)C2=O)ccn1` (stereo not drawn) [Example 65], the melting point lay within 188 to 192 °C. `Cc1cc(C2(c3cccc(-c4cccnc4)c3)N=C(N)N(C)C2=O)ccn1` (stereo not drawn) [Example 60] returned an IC50 in data set [1] of 0.01 to 0.1 µM.

In the case of `COc1ccc(C2(c3ccnc(-c4ccccc4)c3)N=C(N)N(C)C2=O)cc1C` (stereo not drawn) [Example 109, 2-Amino-5-(4-methoxy-3-methylphenyl)-3-methyl-5-(2-phenylpyridin-4-yl)-3,5-dihydro-4H-imidazol-4-one], in data set [1] (setting [2]), the IC50 fell in the range of 0.11 to 1 µM. Still for that read-out and setting: for `COc1ncc(C2(c3cccc(-c4cncnc4)c3)N=C(N)N(C)C2=O)c(OC)n1` (stereo not drawn) [Example 97] the value was above 1 µM.

`CN1C(=O)C(c2ccncc2)(c2cccc(-c3cccc(F)c3F)c2)N=C1N` (stereo not drawn) [Example 40] registered an IC50 in data set [1] of 0.01 to 0.1 µM.

`COc1cccc(-c2cccc(C3(c4ccncc4)N=C(N)N(C)C3=O)c2)c1` (stereo not drawn) [Example 34] had an IC50 in data set [1] of 0.01 to 0.1 µM. Take `CN1C(=O)C(c2ccccc2)(c2ccncc2)N=C1N` (stereo not drawn) [Example 23, 2-Amino-3-methyl-5-phenyl-5-pyridin-4-yl-3,5-dihydro-4H-imidazol-4-one]: the IC50 in data set [1] was above 1 µM. Regarding `CCc1cc(C2(c3cccc(-c4cncnc4)c3)N=C(N)N(C)C2=O)cc(C)n1` (stereo not drawn) [Example 84], the IC50 in data set [1] is 0.11 to 1 µM.

In turn, `CCc1cc([C@@]2(c3cccc(-c4cncnc4)c3)N=C(N)N(C)C2=O)cc(CC)n1` [Example 103A] had an IC50 in data set [1] above 1 µM. In the case of `Cc1cc(C2(c3cccc(-c4cncnc4)c3)N=C(N)N(C)C2=O)ccn1` (stereo not drawn) [Example 61], the IC50 in data set [1] was in the range of 0.01 to 0.1 µM. Still for that read-out and setting: the figure for `CCc1cc([C@]2(c3cccc(-c4cncnc4)c3)N=C(N)N(C)C2=O)cc(CC)n1` [Example 103B] is 0.01 to 0.1 µM; for `CC(C)c1cc(C2(c3cccc(-c4cncnc4)c3)N=C(N)N(C)C2=O)ccn1` (stereo not drawn) [Example 87] it is 0.01 to 0.1 µM.

(Values after patent US7452885B2, “Amino-5-(6-membered)heteroarylimidazolone compounds and the use thereof for β-secretase modulation” (Wyeth, priority 2005, dated 2008).)
